# Data taken from PubChem BioAssay AID248 (DTP/NCI, 2004).
# Values joined by “and” are separate entries in the source; they are usually repeats but may differ in a detail not shown here. Equal entries are not always repeated. Inconclusive results and toxic doses are left out.
# Tested on: L1210 leukemia ip in BDF1 mice, survival T/C
# Assay: NCI In Vivo Anticancer Drug Screen. Data for tumor model L1210 Leukemia (intraperitoneal) in B6D2F1 (BDF1) mice
# Settings: endpoint: mean survival time, higher = longer survival
# In short: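 Each compound was tested against a transplantable tumor grown in mice. The endpoint was survival, with treated animals benchmarked against vehicle controls as a simple ratio.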
# [1] = dose: 100.0 mg/kg/injection, schedule: Q01DX001 (ip), vehicle: saline
# [2] = dose: 75.0 mg/kg/injection, schedule: Q01DX001 (ip), vehicle: other
# [3] = dose: 150.0 mg/kg/injection, schedule: Q01DX001 (ip), vehicle: other
# [4] = dose: 100.0 mg/kg/injection, schedule: Q01DX009 (ip), vehicle: saline with Tween-80
# [5] = dose: 100.0 mg/kg/injection, schedule: Q04DX003 (ip), vehicle: saline with Tween-80
# [6] = dose: 200.0 mg/kg/injection, schedule: Q01DX009 (ip), vehicle: saline with Tween-80
# [7] = dose: 200.0 mg/kg/injection, schedule: Q04DX003 (ip), vehicle: saline with Tween-80
# [8] = dose: 400.0 mg/kg/injection, schedule: Q01DX009 (ip), vehicle: saline with Tween-80
# [9] = dose: 400.0 mg/kg/injection, schedule: Q04DX003 (ip), vehicle: saline with Tween-80
# [10] = dose: 100.0 mg/kg/injection, schedule: Q04DX003 (ip), vehicle: saline
# [11] = dose: 200.0 mg/kg/injection, schedule: Q04DX003 (ip), vehicle: saline
# [12] = dose: 400.0 mg/kg/injection, schedule: Q04DX003 (ip), vehicle: saline
# [13] = dose: 100.0 mg/kg/injection, schedule: Q01DX001 (ip), vehicle: other
# [14] = dose: 200.0 mg/kg/injection, schedule: Q01DX001 (ip), vehicle: other
# [15] = dose: 400.0 mg/kg/injection, schedule: Q01DX001 (ip), vehicle: other
structure (smiles),measurement,setting,value
Cc1cc2c(cc1C)[n+]([O-])c1c(=O)[nH]c(=O)nc-1n2CC(O)C(O)C(O)CO (centres undefined),T/C,"dose: 100.0 mg/kg/injection, schedule: Q04DX002 (ip), vehicle: saline with Tween-80",98 % of control
same,T/C,"dose: 200.0 mg/kg/injection, schedule: Q04DX002 (ip), vehicle: saline with Tween-80",95 % of control
O=C(O)CCCC(CC(=O)O)c1ccccc1 (centres undefined),T/C,"dose: 50.0 mg/kg/injection, schedule: Q04DX002 (ip), vehicle: saline",108 % of control
same,T/C,"dose: 100.0 mg/kg/injection, schedule: Q04DX002 (ip), vehicle: saline",104 % of control
same,T/C,"dose: 200.0 mg/kg/injection, schedule: Q04DX002 (ip), vehicle: saline",101 % of control
O=C1C=CC(=O)N1c1cccc(N2C(=O)C=CC2=O)c1,T/C,"dose: 8.0 mg/kg/injection, schedule: Q04DX003 (ip), vehicle: saline",102 % of control
same,T/C,"dose: 16.0 mg/kg/injection, schedule: Q04DX003 (ip), vehicle: saline",95 % of control
O=C(CC(C(=O)Nc1ccccc1)C(O)(c1ccccc1)c1ccccc1)Nc1ccccc1 (centres undefined),T/C,"dose: 100.0 mg/kg/injection, schedule: Q01DX001 (ip), vehicle: carboxymethylcellulose (CMC)",95 % of control
same,T/C,"dose: 200.0 mg/kg/injection, schedule: Q01DX001 (ip), vehicle: carboxymethylcellulose (CMC)",91 % of control
same,T/C,"dose: 400.0 mg/kg/injection, schedule: Q01DX001 (ip), vehicle: carboxymethylcellulose (CMC)",95 % of control
O=C(CCl)Nc1ccc(S(=O)(=O)c2ccc([N+](=O)[O-])cc2)cc1,T/C,"dose: 30.0 mg/kg/injection, schedule: Q01DX001 (ip), vehicle: saline",94 % of control
same,T/C,"dose: 75.0 mg/kg/injection, schedule: Q01DX009 (ip), vehicle: saline",95 % of control
same,T/C,"dose: 75.0 mg/kg/injection, schedule: Q04DX003 (ip), vehicle: saline",92 % of control
same,T/C,[1],91 % of control
same,T/C,"dose: 150.0 mg/kg/injection, schedule: Q01DX009 (ip), vehicle: saline",96 % of control
same,T/C,"dose: 150.0 mg/kg/injection, schedule: Q04DX003 (ip), vehicle: saline",91 % of control
same,T/C,"dose: 300.0 mg/kg/injection, schedule: Q01DX001 (ip), vehicle: saline",94 % of control
same,T/C,"dose: 300.0 mg/kg/injection, schedule: Q01DX009 (ip), vehicle: saline",101 % of control
same,T/C,"dose: 300.0 mg/kg/injection, schedule: Q04DX003 (ip), vehicle: saline",94 % of control
CC(C)=CCc1c2c(c3occ(-c4ccc(O)cc4)c(=O)c3c1O)C=CC(C)(C)O2,T/C,"dose: 100.0 mg/kg/injection, schedule: Q04DX003 (ip), vehicle: Klucel (hydroxypropylcellulose) (HPC)",88 % of control
same,T/C,"dose: 400.0 mg/kg/injection, schedule: Q04DX003 (ip), vehicle: Klucel (hydroxypropylcellulose) (HPC)",88 % of control
NC(=Nc1ccccc1)SCc1ccc([N+](=O)[O-])cc1,T/C,"dose: 50.0 mg/kg/injection, schedule: Q01DX009 (ip), vehicle: Klucel (hydroxypropylcellulose) (HPC)",108 % of control
same,T/C,"dose: 100.0 mg/kg/injection, schedule: Q01DX005 (ip), vehicle: Klucel (hydroxypropylcellulose) (HPC)",97 % of control
same,T/C,"dose: 100.0 mg/kg/injection, schedule: Q01DX009 (ip), vehicle: Klucel (hydroxypropylcellulose) (HPC)",104 % of control
same,T/C,"dose: 100.0 mg/kg/injection, schedule: Q04DX002 (ip), vehicle: Klucel (hydroxypropylcellulose) (HPC)",104 % of control
same,T/C,"dose: 200.0 mg/kg/injection, schedule: Q01DX005 (ip), vehicle: Klucel (hydroxypropylcellulose) (HPC)",92 % of control
same,T/C,"dose: 200.0 mg/kg/injection, schedule: Q04DX002 (ip), vehicle: Klucel (hydroxypropylcellulose) (HPC)",112 % of control
same,T/C,"dose: 400.0 mg/kg/injection, schedule: Q04DX002 (ip), vehicle: Klucel (hydroxypropylcellulose) (HPC)",89 % of control
CN(C)C(=C1C=CC=C1)N(C)C,T/C,"dose: 20.0 mg/kg/injection, schedule: Q04DX003 (ip), vehicle: saline",101 % of control
same,T/C,"dose: 40.0 mg/kg/injection, schedule: Q04DX003 (ip), vehicle: saline",96 % of control
same,T/C,"dose: 80.0 mg/kg/injection, schedule: Q04DX003 (ip), vehicle: saline",92 % of control
CC(=O)N1CC=C2c3c1ccc(C)c3C(=O)C2C(N)=O (centres undefined),T/C,[1],97 % of control
same,T/C,"dose: 200.0 mg/kg/injection, schedule: Q01DX001 (ip), vehicle: saline",94 % of control
same,T/C,"dose: 400.0 mg/kg/injection, schedule: Q01DX001 (ip), vehicle: saline",94 % of control
CCCCC(=O)NN,T/C,"dose: 12.5 mg/kg/injection, schedule: Q01DX009 (ip), vehicle: saline with Tween-80",103 % of control
same,T/C,"dose: 22.0 mg/kg/injection, schedule: Q01DX009 (ip), vehicle: saline with Tween-80",110 % of control
same,T/C,"dose: 25.0 mg/kg/injection, schedule: Q01DX009 (ip), vehicle: saline with Tween-80",111 % of control and 112 % of control
same,T/C,"dose: 50.0 mg/kg/injection, schedule: Q01DX009 (ip), vehicle: saline with Tween-80",100 % of control
same,T/C,"dose: 60.0 mg/kg/injection, schedule: Q01DX009 (ip), vehicle: saline with Tween-80",118 % of control
CCN1CCCC(SC(=O)C(O)(c2ccccc2)c2ccccc2)C1 (centres undefined),T/C,[2],94 % of control
same,T/C,[3],94 % of control
same,T/C,"dose: 300.0 mg/kg/injection, schedule: Q01DX001 (ip), vehicle: other",88 % of control
Cc1ccc([N+](=O)[O-])cc1NC(=O)SCCOC(=O)COc1ccc(Cl)cc1Cl,T/C,[4],94 % of control
same,T/C,[5],93 % of control
same,T/C,[6],94 % of control
same,T/C,[7],98 % of control
same,T/C,[8],105 % of control
same,T/C,[9],89 % of control
N=C(OC1CCCCC1)N(Cc1ccccc1)Cc1ccccc1,T/C,"dose: 44.0 mg/kg/injection, schedule: Q01DX Z (ip), vehicle: methylcellulose (MC)",104 % of control
same,T/C,"dose: 66.0 mg/kg/injection, schedule: Q01DX Z (ip), vehicle: methylcellulose (MC)",104 % of control
same,T/C,"dose: 100.0 mg/kg/injection, schedule: Q01DX Z (ip), vehicle: methylcellulose (MC)",117 % of control
CN(CC(=O)O)C(=O)CN=Cc1ccccc1,T/C,[10],96 % of control
same,T/C,[11],97 % of control
same,T/C,[12],97 % of control
Nc1ccc(N=Nc2ccccc2Cl)c(N)n1,T/C,"dose: 50.0 mg/kg/injection, schedule: Q01DX001 (ip), vehicle: other",103 % of control
same,T/C,[13],100 % of control
same,T/C,[14],94 % of control
same,T/C,[15],100 % of control
CC1(C)N=C(N)N=C(N)N1c1cccc(Br)c1,T/C,"dose: 2.5 mg/kg/injection, schedule: Q01DX Z (ip), vehicle: saline",121 % of control
same,T/C,"dose: 11.0 mg/kg/injection, schedule: Q01DX Z (ip), vehicle: carboxymethylcellulose (CMC)",117 % of control
same,T/C,"dose: 16.0 mg/kg/injection, schedule: Q01DX Z (ip), vehicle: saline",162 % of control
same,T/C,"dose: 25.0 mg/kg/injection, schedule: Q01DX Z (ip), vehicle: saline",168 % of control
same,T/C,"dose: 37.0 mg/kg/injection, schedule: Q01DX Z (ip), vehicle: carboxymethylcellulose (CMC)",105 % of control
same,T/C,"dose: 50.0 mg/kg/injection, schedule: Q01DX Z (ip), vehicle: methylcellulose (MC)",97 % of control
same,T/C,"dose: 60.0 mg/kg/injection, schedule: Q01DX Z (ip), vehicle: carboxymethylcellulose (CMC)",107 % of control
same,T/C,[2],103 % of control
same,T/C,"dose: 90.0 mg/kg/injection, schedule: Q01DX Z (ip), vehicle: carboxymethylcellulose (CMC)",90 % of control
same,T/C,[3],108 % of control
CCOC(=O)CCN(CC(=O)OCC)C(C)C,T/C,[4],100 % of control
same,T/C,[5],100 % of control
same,T/C,[6],106 % of control
same,T/C,[7],95 % of control
same,T/C,[8],110 % of control
same,T/C,[9],103 % of control
CC[N+](CC)(CC)CCOc1cccc(OCC[N+](CC)(CC)CC)c1OCC[N+](CC)(CC)CC,T/C,"dose: 5.0 mg/kg/injection, schedule: Q01DX001 (ip), vehicle: saline",95 % of control
same,T/C,"dose: 10.0 mg/kg/injection, schedule: Q01DX001 (ip), vehicle: saline",98 % of control
CN1CCCCCC1=O,T/C,[10],100 % of control
same,T/C,[11],111 % of control
same,T/C,[12],101 % of control
CC1CN=C(CCc2ccc(NC(=O)c3ccc(C(=O)Nc4ccc(CCC5=NCC(C)N5)cc4)cc3)cc2)N1 (centres undefined),T/C,"dose: 240.0 mg/kg/injection, schedule: Q01DX Z (ip), vehicle: saline",97 % of control
same,T/C,"dose: 480.0 mg/kg/injection, schedule: Q01DX Z (ip), vehicle: saline",92 % of control
COC(=O)c1cc(=O)c2cc(C(C)=O)ccc2[nH]1,T/C,[13],95 % of control
same,T/C,[14],94 % of control and 89 % of control
same,T/C,[15],105 % of control and 90 % of control
